The supplement of paper PMC13380429

Columns and labels:
Conditions in all cases: 72 h
Caco-2 [1] = assay: relative viability EC50 (midpoint between 100% and the lowest measured viability); higher = less toxic
HepG2 [2] = assay: as above
Calu-3 [3] = assay: as above
U2OS [4] = assay: as above
Vero E6 [5] = assay: as above
Caco-2 [6] = assay: drug sensitivity score (DSS) for viability; higher = more toxic; extreme values may be limits of the assay
HepG2 [7] = assay: as above
Calu-3 [8] = assay: as above
U2OS [9] = assay: as above
Vero E6 [10] = assay: as above
Caco-2 [11] = assay: cell viability relative to DMSO; higher = less toxic
HepG2 [12] = assay: as above
Calu-3 [13] = assay: as above
U2OS [14] = assay: as above
Vero E6 [15] = assay: as above

Structure (SMILES) | relative viability EC50 (Caco-2 [1]) | relative viability EC50 (HepG2 [2]) | relative viability EC50 (Calu-3 [3]) | relative viability EC50 (U2OS [4]) | relative viability EC50 (Vero E6 [5]) | drug sensitivity score (Caco-2 [6]) | drug sensitivity score (HepG2 [7]) | drug sensitivity score (Calu-3 [8]) | drug sensitivity score (U2OS [9]) | drug sensitivity score (Vero E6 [10]) | cell viability (Caco-2 [11]; 1 nM) | cell viability (Caco-2 [11]; 10 nM) | cell viability (Caco-2 [11]; 100 nM) | cell viability (Caco-2 [11]; 1000 nM) | cell viability (Caco-2 [11]; 10000 nM) | cell viability (HepG2 [12]; 1 nM) | cell viability (HepG2 [12]; 10 nM) | cell viability (HepG2 [12]; 100 nM) | cell viability (HepG2 [12]; 1000 nM) | cell viability (HepG2 [12]; 10000 nM) | cell viability (Calu-3 [13]; 1 nM) | cell viability (Calu-3 [13]; 10 nM) | cell viability (Calu-3 [13]; 100 nM) | cell viability (Calu-3 [13]; 1000 nM) | cell viability (Calu-3 [13]; 10000 nM) | cell viability (U2OS [14]; 1 nM) | cell viability (U2OS [14]; 10 nM) | cell viability (U2OS [14]; 100 nM) | cell viability (U2OS [14]; 1000 nM) | cell viability (U2OS [14]; 10000 nM) | cell viability (Vero E6 [15]; 1 nM) | cell viability (Vero E6 [15]; 10 nM) | cell viability (Vero E6 [15]; 100 nM) | cell viability (Vero E6 [15]; 1000 nM) | cell viability (Vero E6 [15]; 10000 nM)
CC(C)C[C@@H](N)C1(c2ccc(Cl)cc2)CCC1 | > 10 µM | > 10 µM | > 10 µM | > 10 µM | > 10 µM | 0 | 0 | 0 | 0 | 0 | 101% | 103% | 108% | 96% | 90.3% | 104% | 99.9% | 110% | 103% | 104% | 96% | 104% | 109% | 89.9% | 102% | 98.9% | 98.3% | 94.2% | 99% | 94.1% | 106% | 101% | 100% | 98.8% | 105%
CC(C)OC(=O)C1=CN(C(=O)c2ccc(F)c(F)c2)CC(C)(C)c2c1[nH]c1ccccc21 | > 10 µM | > 10 µM | > 10 µM | > 10 µM | > 10 µM | 0 | 0 | 0 | 0 | 0 | 84.5% | 99.7% | 86.1% | 95.2% | 89.3% | 95.3% | 102% | 97.3% | 92.1% | 112% | 104% | 91.3% | 103% | 96.5% | 97.8% | 98.3% | 99.6% | 95.9% | 100% | 96.3% | 101% | 97.6% | 95.4% | 98.7% | 98.9%
CCC[C@H](N[C@H]1CCc2cc(F)cc(F)c2C1)C(=O)Nc1cn(C(C)(C)CNCC(C)(C)C)cn1 | > 10 µM | > 10 µM | > 10 µM | > 10 µM | > 10 µM | 0.3 | 1.3 | 0.2 | 0.2 | 0.1 | 102% | 91.8% | 102% | 98.2% | 86.1% | 105% | 104% | 104% | 93.9% | 80.1% | 95% | 105% | 108% | 103% | 84.4% | 102% | 94.7% | 99.7% | 92.4% | 87.9% | 99.7% | 104% | 107% | 95.5% | 89.1%
CCCc1c(OCCCOc2ccc(OCC(=O)O)cc2)ccc(C(C)=O)c1O | > 10 µM | > 10 µM | > 10 µM | > 10 µM | > 10 µM | 0 | 0 | 0 | 0 | 0 | 97.2% | 90.6% | 88.8% | 95.7% | 103% | 102% | 106% | 107% | 104% | 92.8% | 101% | 94.8% | 93.6% | 101% | 107% | 94.3% | 98.6% | 93.4% | 96.5% | 102% | 107% | 99.5% | 106% | 102% | 94.2%
CCOC(=O)C(=O)Nc1cccc(OC)c1C(N)=O | > 10 µM | > 10 µM | > 10 µM | > 10 µM | > 10 µM | 0 | 0 | 0 | 0 | 0 | 83.3% | 96.6% | 103% | 104% | 102% | 102% | 96.7% | 93.2% | 102% | 104% | 83.7% | 95.3% | 91.2% | 97.5% | 88.8% | 98.9% | 98.9% | 96% | 101% | 97.6% | 103% | 94.9% | 108% | 105% | 106%
CC[C@H](NC(=O)c1c(C)c(-c2ccccc2)nc2ccccc12)c1ccccc1 | > 10 µM | > 10 µM | > 10 µM | > 10 µM | > 10 µM | 0 | 0 | 0.2 | 0 | 0 | 106% | 98.4% | 101% | 103% | 91.2% | 99% | 108% | 95.4% | 102% | 93.4% | 95.8% | 95.2% | 100% | 96.7% | 87.7% | 104% | 101% | 101% | 98.7% | 102% | 103% | 109% | 102% | 103% | 96.7%
CN(C)CCCCSC(=N)N | > 10 µM | > 10 µM | > 10 µM | > 10 µM | > 10 µM | 0 | 0 | 0.8 | 0 | 0 | 104% | 111% | 99.6% | 105% | 97.9% | 104% | 103% | 90.7% | 93% | 95.1% | 90.6% | 89.5% | 89% | 91.8% | 90.1% | 94% | 92.8% | 100% | 94.7% | 97.8% | 104% | 108% | 101% | 105% | 99.3%
CN(C)[C@@H]1CCc2[nH]c3ccc(NC(=O)c4ccc(F)cc4)cc3c2C1 | > 10 µM | > 10 µM | > 10 µM | > 10 µM | > 10 µM | 0.2 | 0.1 | 0.1 | 0 | 0 | 96% | 103% | 93.5% | 99.3% | 86.6% | 101% | 99.3% | 95.8% | 89.3% | 94.6% | 105% | 93.2% | 105% | 110% | 84.2% | 97.1% | 104% | 91.9% | 101% | 96.1% | 106% | 98.9% | 100% | 96.1% | 97.2%
COc1cccc(NC(=O)/C=C/c2ccc(Cl)cc2)c1 | > 10 µM | > 10 µM | > 10 µM | > 10 µM | > 10 µM | 1.4 | 0 | 0.1 | 0 | 0 | 98.2% | 100% | 98.5% | 88.3% | 81% | 102% | 103% | 99.8% | 98.3% | 105% | 104% | 99.4% | 93.3% | 108% | 84.2% | 93% | 100% | 96.3% | 97.9% | 92.8% | 102% | 96.4% | 97.2% | 95% | 107%
CSc1cc2c(cc1C(F)(F)F)N(C(=O)Nc1cccnc1)CC2 | > 10 µM | > 10 µM | > 10 µM | > 10 µM | > 10 µM | 0 | 0 | 0 | 0 | 0 | 103% | 101% | 95.5% | 97.5% | 97.9% | 109% | 95.6% | 85% | 99% | 94.7% | 106% | 83.3% | 93.2% | 91.2% | 107% | 100% | 99.6% | 108% | 98.9% | 101% | 102% | 104% | 96.5% | 102% | 102%
C[C@H](Cc1ccc(OCC(=O)O)cc1)NC[C@H](O)c1cccc(Cl)c1 | > 10 µM | > 10 µM | > 10 µM | > 10 µM | > 10 µM | 0 | 0 | 0 | 0 | 0 | 98.6% | 89.6% | 105% | 94.8% | 103% | 104% | 111% | 98.4% | 99.8% | 97.7% | 97.9% | 101% | 103% | 100% | 90.7% | 98% | 93.3% | 96% | 102% | 99.8% | 97.6% | 95.9% | 91.7% | 92.3% | 105%
C[C@H]1CO[C@@H]2Cn3cc(C(=O)NCc4ccc(F)cc4F)c(=O)c(O)c3C(=O)N12 | > 10 µM |  | > 10 µM | > 10 µM | > 10 µM | 0.6 | 1.6 | 0 | 0 | 0 | 107% | 90.1% | 98% | 98.5% | 81.6% | 104% | 112% | 97.1% | 112% | 56.9% | 109% | 94% | 104% | 95.2% | 92.2% | 95.6% | 92.4% | 99.4% | 92.2% | 88.5% | 88.9% | 99.7% | 94.3% | 97.5% | 89.6%
Cc1ccc(-c2ncc[nH]2)cc1NC(=O)c1ccc(OCc2ccccn2)cc1 | > 10 µM | > 10 µM | > 10 µM | > 10 µM | > 10 µM | 0.5 | 0 | 0 | 0 | 0 | 101% | 101% | 105% | 96.7% | 85.2% | 103% | 103% | 97.7% | 96% | 94.7% | 91% | 97.8% | 96.6% | 89.1% | 101% | 96.5% | 98% | 100% | 97.1% | 99.2% | 100% | 104% | 99.2% | 99.2% | 90%
Cc1cn2c(N)c(Cl)cc(C(=O)NCC3CCN(CC(C)C)CC3)c2n1 | > 10 µM | > 10 µM | > 10 µM | > 10 µM | > 10 µM | 0 | 0.5 | 0 | 0 | 0 | 103% | 83.1% | 103% | 99.7% | 107% | 107% | 99.6% | 102% | 88.1% | 97.1% | 102% | 96.5% | 99.9% | 93.4% | 99.9% | 101% | 95.1% | 102% | 97.6% | 95.4% | 88% | 101% | 90.2% | 96.5% | 99.2%
Cc1cnc(-c2cc(N3CCN(C(=O)CCS(C)(=O)=O)CC3)ncc2Cl)c(C)c1 | > 10 µM | > 10 µM | > 10 µM | > 10 µM | > 10 µM | 0 | 0 | 0 | 0 | 0 | 103% | 90.2% | 102% | 99.1% | 106% | 99.9% | 93.2% | 98.6% | 101% | 113% | 104% | 105% | 92.8% | 110% | 109% | 92.1% | 101% | 98.1% | 105% | 101% | 94.5% | 93.4% | 95.4% | 95.3% | 102%
